{
  "source": "paper PMC2783803",
  "about": "(Journal of medicinal chemistry, 2009)",
  "key": {"[1]": {"tested_on": "mouse sweet receptor (mT1R2+mT1R3)", "experiment": "Heterologous calcium mobilization assay, mouse sweet receptor", "format": "cell-based", "settings": "activated by 2.5mM sucralose; inhibitor at ~5-times IC50"}, "[2]": {"tested_on": "sweet and umami (MSG) taste", "experiment": "Psychophysical self-experimentation, taste inhibition in vivo", "parameters": "species or system human", "settings": "self-experimentation by one author; data not shown"}, "PPAR-alpha": {"tested_on": "PPAR-alpha", "settings": "read-out: EC50 for activating PPAR-alpha; cited from earlier work"}, "human T1R2+T1R3 receptor": {"biological_target": "T1, human T1R2+T1R3 receptor (Homo sapiens, UniProt Q7RTX0)", "T1 sequence (Q7RTX0 21-852)": "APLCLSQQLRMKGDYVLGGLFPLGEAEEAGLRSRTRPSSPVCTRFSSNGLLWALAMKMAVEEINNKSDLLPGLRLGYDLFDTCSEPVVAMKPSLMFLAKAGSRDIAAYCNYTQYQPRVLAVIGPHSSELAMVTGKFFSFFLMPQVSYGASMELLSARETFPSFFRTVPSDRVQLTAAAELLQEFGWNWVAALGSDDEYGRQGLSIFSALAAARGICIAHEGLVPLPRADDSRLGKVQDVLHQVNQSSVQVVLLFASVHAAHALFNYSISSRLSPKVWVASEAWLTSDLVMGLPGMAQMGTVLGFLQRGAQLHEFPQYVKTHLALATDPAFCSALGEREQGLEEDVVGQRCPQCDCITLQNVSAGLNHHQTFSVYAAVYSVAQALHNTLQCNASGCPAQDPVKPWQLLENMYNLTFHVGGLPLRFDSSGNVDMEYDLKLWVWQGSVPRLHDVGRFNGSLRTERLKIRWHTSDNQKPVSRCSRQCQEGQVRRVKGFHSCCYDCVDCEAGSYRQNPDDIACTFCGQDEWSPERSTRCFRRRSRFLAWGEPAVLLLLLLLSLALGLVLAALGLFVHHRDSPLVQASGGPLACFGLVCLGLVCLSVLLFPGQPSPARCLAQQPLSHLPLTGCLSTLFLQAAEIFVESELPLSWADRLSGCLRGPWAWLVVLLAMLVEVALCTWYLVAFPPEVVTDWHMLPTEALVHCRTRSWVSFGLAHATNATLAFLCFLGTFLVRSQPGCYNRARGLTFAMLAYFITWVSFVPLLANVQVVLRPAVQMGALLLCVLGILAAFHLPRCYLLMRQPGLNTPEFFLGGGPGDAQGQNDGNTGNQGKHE", "T1 sequence (Q8TE23 20-839 partner)": "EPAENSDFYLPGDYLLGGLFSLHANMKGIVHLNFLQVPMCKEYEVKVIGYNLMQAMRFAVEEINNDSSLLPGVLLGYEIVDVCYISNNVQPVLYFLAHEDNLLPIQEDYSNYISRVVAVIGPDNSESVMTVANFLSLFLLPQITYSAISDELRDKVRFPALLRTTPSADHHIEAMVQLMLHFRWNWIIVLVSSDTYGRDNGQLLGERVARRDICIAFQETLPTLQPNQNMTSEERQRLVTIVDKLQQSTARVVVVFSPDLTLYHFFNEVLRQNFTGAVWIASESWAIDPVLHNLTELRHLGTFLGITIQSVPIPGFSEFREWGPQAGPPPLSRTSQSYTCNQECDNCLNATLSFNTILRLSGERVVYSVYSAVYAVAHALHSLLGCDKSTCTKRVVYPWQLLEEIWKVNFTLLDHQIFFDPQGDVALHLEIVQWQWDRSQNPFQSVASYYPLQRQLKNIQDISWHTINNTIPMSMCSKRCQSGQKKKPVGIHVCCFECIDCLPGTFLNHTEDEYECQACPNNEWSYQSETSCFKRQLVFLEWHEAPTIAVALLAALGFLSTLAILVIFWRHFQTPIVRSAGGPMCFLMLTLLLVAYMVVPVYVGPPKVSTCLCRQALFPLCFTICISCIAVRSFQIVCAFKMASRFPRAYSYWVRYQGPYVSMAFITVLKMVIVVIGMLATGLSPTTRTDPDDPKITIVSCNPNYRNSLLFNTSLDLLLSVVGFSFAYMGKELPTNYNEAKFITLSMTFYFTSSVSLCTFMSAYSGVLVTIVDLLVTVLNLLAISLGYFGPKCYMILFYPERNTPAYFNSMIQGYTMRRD", "experiment": "Heterologous calcium mobilization assay, human sweet receptor in HEK293 cells", "format": "cell-based"}},
  "data": [
    {"smiles": "COc1ccc(OC(C)C(=O)O)cc1", "note": "(centres unmarked) [Lactisole, 2-(4-methoxyphenoxy) propanoic acid]", "values": [
      {"measurement": "effect on the mouse sweet receptor", "setting": "[1]", "result": "no effect"}
    ]},
    {"smiles": "CC(C)(Oc1ccc(Cl)cc1)C(=O)O", "note": "[Clofibric acid, 2-(4-chlorophenoxy)-2-methylpropanoic acid]", "values": [
      {"measurement": "inhibition of sweet taste in vivo", "setting": "[2]", "result": "potently inhibited"},
      {"measurement": "inhibition of umami (MSG) taste in vivo", "setting": "[2]", "result": "potently inhibited"},
      {"measurement": "EC50", "setting": "PPAR-alpha", "result": "50 to 55", "unit": "µM"}
    ]},
    {"smiles": "O=C(O)COc1ccc(Cl)cc1Cl", "note": "[2,4D, (2,4-dichlorophenoxy)acetic acid]", "values": [
      {"measurement": "IC50", "setting": "human T1R2+T1R3 receptor", "result": 70, "unit": "µM"}
    ]}
  ]
}
